Target: HEK293 cells with stable expression of the GRIN1 gene and tetracycline-inducible expression of the GRIN2B gene (NMDA receptor, NR2B) (Homo sapiens, UniProt Q13224)
Assay: Fluo-8 Ca2+ flux assay: reversal of Ro 25-6981-mediated suppression of the Ca2+ response to co-agonist (glutamate/glycine); also: test concentration or dose not given here
Assay type: cell-based
Conditions: reversal of the Ro 25-6981 suppression of the Ca2+ response to co-agonist (glutamate/glycine)

Sequence of HEK293 cells with stable expression of the GRIN1 gene and tetracycline-inducible expression of the GRIN2B gene (NMDA receptor, NR2B) (Q13224 27-1484, other chains not shown): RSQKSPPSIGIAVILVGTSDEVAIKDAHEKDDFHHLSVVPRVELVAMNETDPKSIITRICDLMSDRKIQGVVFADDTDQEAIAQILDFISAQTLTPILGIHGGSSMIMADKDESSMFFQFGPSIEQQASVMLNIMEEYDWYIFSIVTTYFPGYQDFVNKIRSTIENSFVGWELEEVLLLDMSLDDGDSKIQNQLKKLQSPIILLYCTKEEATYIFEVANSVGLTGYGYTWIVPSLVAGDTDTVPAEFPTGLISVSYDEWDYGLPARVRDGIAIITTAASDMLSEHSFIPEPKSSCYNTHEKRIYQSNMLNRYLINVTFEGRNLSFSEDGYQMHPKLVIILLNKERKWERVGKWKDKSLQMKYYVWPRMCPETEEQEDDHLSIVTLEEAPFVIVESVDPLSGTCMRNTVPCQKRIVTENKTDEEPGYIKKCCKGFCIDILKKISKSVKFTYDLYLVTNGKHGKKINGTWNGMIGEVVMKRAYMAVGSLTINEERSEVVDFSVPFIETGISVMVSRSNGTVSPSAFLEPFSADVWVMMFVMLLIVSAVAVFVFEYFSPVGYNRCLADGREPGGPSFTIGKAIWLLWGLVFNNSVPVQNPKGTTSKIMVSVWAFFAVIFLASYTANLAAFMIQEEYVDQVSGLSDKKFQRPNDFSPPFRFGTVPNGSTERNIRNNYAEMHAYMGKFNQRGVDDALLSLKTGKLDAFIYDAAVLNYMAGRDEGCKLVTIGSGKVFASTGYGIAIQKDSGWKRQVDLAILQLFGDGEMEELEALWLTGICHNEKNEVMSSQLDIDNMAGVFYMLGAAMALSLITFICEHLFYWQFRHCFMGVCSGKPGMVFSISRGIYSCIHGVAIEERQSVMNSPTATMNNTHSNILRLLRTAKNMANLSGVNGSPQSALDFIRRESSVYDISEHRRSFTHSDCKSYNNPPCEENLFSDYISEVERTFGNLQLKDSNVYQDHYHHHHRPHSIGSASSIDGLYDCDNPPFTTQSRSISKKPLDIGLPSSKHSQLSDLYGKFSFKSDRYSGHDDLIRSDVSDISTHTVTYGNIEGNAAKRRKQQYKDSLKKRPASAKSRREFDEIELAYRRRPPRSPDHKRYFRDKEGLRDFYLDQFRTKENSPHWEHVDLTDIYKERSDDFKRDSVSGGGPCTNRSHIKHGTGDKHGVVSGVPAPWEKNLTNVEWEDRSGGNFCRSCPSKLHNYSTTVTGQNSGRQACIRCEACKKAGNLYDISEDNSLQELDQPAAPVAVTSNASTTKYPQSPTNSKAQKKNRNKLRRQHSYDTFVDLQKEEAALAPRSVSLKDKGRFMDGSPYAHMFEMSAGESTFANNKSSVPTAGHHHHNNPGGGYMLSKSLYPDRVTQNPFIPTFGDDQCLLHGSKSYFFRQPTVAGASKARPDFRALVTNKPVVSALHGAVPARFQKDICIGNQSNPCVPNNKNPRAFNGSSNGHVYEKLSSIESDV

SMILES | Response Recovered (%)
O=C(Cn1cnc2csc(-c3ccc(C(F)(F)F)cc3)c2c1=O)N1CCCC1 [Example 356, 3-(2-oxo-2-(pyrrolidin-1-yl)ethyl)-5-(4-(trifluoromethyl)phenyl)thieno[3,4-d]pyrimidin-4(3H)-one] | 11%
O=C(Cn1cc(CO)c2scc(-c3ccc(F)c(Cl)c3)c2c1=O)N1CCC(F)C1 (stereo not drawn) [Example 129, 3-(3-chloro-4-fluorophenyl)-5-(2-(3-fluoropyrrolidin-1-yl)-2-oxoethyl)-7-(hydroxymethyl) thieno[3,2-c]pyridin-4(5H)-one] | 39%
O=C(Cn1ccc2ccc(-c3ccc(F)c(C(F)(F)F)c3)cc2c1=O)N1CCC(F)C1 (stereo not drawn) [Example 314, 7-(4-fluoro-3-(trifluoromethyl)phenyl)-2-(2-(3-fluoropyrrolidin-1-yl)-2-oxoethyl)isoquinolin-1(2H)-one] | 8%
O=C(Cn1cc(CN2CCC2)c2scc(-c3ccc(F)c(Cl)c3)c2c1=O)N1CCC(F)C1 (stereo not drawn) [Example 124, 7-(azetidin-1-ylmethyl)-3-(3-chloro-4-fluorophenyl)-5-(2-(3-fluoropyrrolidin-1-yl)-2-oxoethyl)thieno[3,2-c]pyridin-4(5H)-one] | 76%
O=C(Cn1cnc2ccn(-c3ccc(Cl)cc3)c2c1=O)N1CCCCC1 [Example 377, 5-(4-chlorophenyl)-3-(2-oxo-2-(piperidin-1-yl)ethyl)-3H-pyrrolo[3,2-d]pyrimidin-4(5H)-one] | 1%
CCn1cc(-c2ccc(Cl)c(C(F)(F)F)c2)c2c(=O)n(CC(=O)N3CCCC3)cnc21 [Example 157, 5-(4-chloro-3-(trifluoromethyl)phenyl)-7-ethyl-3-(2-oxo-2-(pyrrolidin-1-yl)ethyl)-3H-pyrrolo[2,3-d]pyrimidin-4(7H)-one] | 70%
O=C(Cn1ncc2scc(-c3ccc(F)c(Cl)c3)c2c1=O)N1CCCC1 [Example 337, 3-(3-chloro-4-fluorophenyl)-5-(2-oxo-2-(pyrrolidin-1-yl)ethyl)thieno[2,3-d]pyridazin-4(5H)-one] | 7%
O=C(Cn1ccc2ncc(-c3cnc(Cl)c(C(F)(F)F)c3)n2c1=O)N1CCC(F)C1 (stereo not drawn) [Example 449, 3-(6-chloro-5-(trifluoromethyl)pyridin-3-yl)-6-(2-(3-fluoropyrrolidin-1-yl)-2-oxoethyl)imidazo[1,2-c]pyrimidin-5(6H)-one] | 5.2%
O=C(Cn1cnc2[nH]cc(-c3ccc(Cl)c(F)c3)c2c1=O)N1CC(F)(F)C1 [Example 167, 5-(4-chloro-3-fluorophenyl)-3-(2-(3,3-difluoroazetidin-1-yl)-2-oxoethyl)-3H-pyrrolo[2,3-d]pyrimidin-4(7H)-one] | 35%
O=C(Cn1ccc2ccc(-c3ccc(Cl)c(C(F)(F)F)c3)cc2c1=O)N1CCC(F)C1 (stereo not drawn) [Example 311, 7-(4-chloro-3-(trifluoromethyl)phenyl)-2-(2-(3-fluoropyrrolidin-1-yl)-2-oxoethyl)isoquinolin-1(2H)-one] | 6%
Cn1cnc(-n2cc(-c3ccc(F)c(C(F)(F)F)c3)c3c(=O)n(CC(=O)N4CC(C)(F)C4)ccc32)n1 [Example 268, 3-(4-fluoro-3-(trifluoromethyl)phenyl)-5-(2-(3-fluoro-3-methylazetidin-1-yl)-2-oxoethyl)-1-(1-methyl-1H-1,2,4-triazol-3-yl)-1H-pyrrolo[3,2-c]pyridin-4(5H)-one] | 52%
O=C(Cn1nnc2scc(-c3ccc(F)c(Cl)c3)c2c1=O)N1CCCC1 [Example 330, 5-(3-chloro-4-fluorophenyl)-3-(2-oxo-2-(pyrrolidin-1-yl)ethyl)thieno[2,3-d][1,2,3]triazin-4(3H)-one] | 6%
O=C(Cn1ccc2c(c(-c3ccc(F)c(Cl)c3)cn2C2COC2)c1=O)N1CCC(F)C1 (stereo not drawn) [Example 261, 3-(3-chloro-4-fluorophenyl)-5-(2-(3-fluoropyrrolidin-1-yl)-2-oxoethyl)-1-(oxetan-3-yl)-1H-pyrrolo[3,2-c]pyridin-4(5H)-one] | 29%
O=C(Cn1cc(Br)c2scc(-c3ccc(Cl)c(C(F)(F)F)c3)c2c1=O)N1CCCC1 [Example 98, 7-bromo-3-(4-chloro-3-(trifluoromethyl)phenyl)-5-(2-oxo-2-(pyrrolidin-1-yl)ethyl)thieno[3,2-c]pyridin-4(5H)-one] | 40%
Cc1cn(CC(=O)N2CC(F)(CF)C2)c(=O)c2c(-c3cnc(Cl)c(Cl)c3)ccn12 [Example 421, 8-(5,6-dichloropyridin-3-yl)-2-(2-(3-fluoro-3-(fluoromethyl)azetidin-1-yl)-2-oxoethyl)-4-methylpyrrolo[1,2-a]pyrazin-1(2H)-one] | 92%
O=C(Cn1cnc2csc(-c3ccc(Cl)cc3)c2c1=O)NC1CCC1 [Example 347, 2-(5-(4-chlorophenyl)-4-oxothieno[3,4-d]pyrimidin-3-(4H)-yl)-N-cyclobutylacetamide] | 2%

Other lines, results leading:

Response Recovered (%) | SMILES
96% | O=C(Cn1ccc2scc(-c3ccc(Cl)c(Cl)c3)c2c1=O)N1CC[C@H](F)C1 [Example 30, (S)-3-(3,4-dichlorophenyl)-5-(2-(3-fluoropyrrolidin-1-yl)-2-oxoethyl)thieno[3,2-c]pyridin-4(5H)-one]
11% | COC1(C)CN(C(=O)Cn2ccc3scc(-c4ccc(F)c(Cl)c4)c3c2=O)C1 [Example 62, 3-(3-chloro-4-fluorophenyl)-5-(2-(3-methoxy-3-methylazetidin-1-yl)-2-oxoethyl)thieno[3,2-c]pyridin-4(5H)-one]
20% | COCc1cn(CC(=O)N2CCC(F)C2)c(=O)c2c(-c3ccc(Cl)c(Cl)c3)csc12 (stereo not drawn) [Example 132, 3-(3,4-dichlorophenyl)-5-(2-(3-fluoropyrrolidin-1-yl)-2-oxoethyl)-7-(methoxymethyl) thieno[3,2-c]pyridin-4(5H)-one]
102% | O=C(Cn1ccc2scc(-c3ccc(Cl)c(Cl)c3)c2c1=O)N1CCC(F)C1 (stereo not drawn) [Example 10, 3-(3,4-dichlorophenyl)-5-(2-(3-fluoropyrrolidin-1-yl)-2-oxoethyl)thieno[3,2-c]pyridin-4(5H)-one]
94% | O=C(Cn1ccc2scc(-c3ccc(F)c(C(F)(F)F)c3)c2c1=O)N1C[C@@H](F)[C@@H](F)C1 [Example 28, 5-(2-((3S,4R)-3,4-difluoropyrrolidin-1-yl)-2-oxoethyl)-3-(4-fluoro-3-(trifluoromethyl)phen-nyl)thieno[3,2-c]pyridin-4(5H)-one]
39% | O=C(Cn1cnc2csc(-c3ccc(F)c(Cl)c3)c2c1=O)N1CC(F)(F)C1 [Example 360, 5-(3-chloro-4-fluorophenyl)-3-(2-(3,3-difluoroazetidin-1-yl)-2-oxoethyl)thieno[3,4-d]pyrimidin-4(3H)-one]
24% | O=C(Cn1ccc2scc(-c3ccc(Cl)c(Cl)c3)c2c1=O)N1CC(F)(c2ccccc2)C1 [Example 53, 3-(3,4-dichlorophenyl)-5-(2-(3-fluoro-3-phenylazetidin-1-yl)-2-oxoethyl)thieno[3,2-c]pyridin-4(5H)-one]
50% | O=C(Cn1ccn2ncc(-c3ccc(Cl)c(Cl)c3)c2c1=O)N1CC(F)(F)C1 [Example 325, 3-(3,4-dichlorophenyl)-5-(2-(3,3-difluoroazetidin-1-yl)-2-oxoethyl)pyrazolo[1,5-a]pyrazin-4(5H)-one]
109% | O=C(Cn1ccc2[nH]cc(-c3ccc(Cl)c(F)c3)c2c1=O)N1CC(F)(F)C1 [Example 213, 3-(4-chloro-3-fluorophenyl)-5-(2-(3,3-difluoroazetidin-1-yl)-2-oxoethyl)-1H-pyrrolo[3,2-c]pyridin-4(5H)-one]
130% | O=C(Cn1ccn2ccc(-c3ccc(F)c(Cl)c3)c2c1=O)N1CC(F)(CF)C1 [Example 402, 8-(3-chloro-4-fluorophenyl)-2-(2-(3-fluoro-3-(fluoromethyl)azetidin-1-yl)-2-oxoethyl)pyrrolo[1,2-a]pyrazin-1(2H)-one]
3.1% | CC1(F)CN(C(=O)Cn2ccc3scc(-c4cnc(Cl)nc4)c3c2=O)C1 [Example 140, 3-(2-chloropyrimidin-5-yl)-5-(2-(3-fluoro-3-methylazetidin-1-yl)-2-oxoethyl)thieno[3,2-c]pyridin-4(5H)-one]
16% | CC1(O)CN(C(=O)Cn2ccc3scc(-c4ccc(Cl)c(Cl)c4)c3c2=O)C1 [Example 61, 3-(3,4-dichlorophenyl)-5-(2-(3-hydroxy-3-methylazetidin-1-yl)-2-oxoethyl)thieno[3,2-c]pyridin-4(5H)-one]
16% | O=C(Cn1ccc2scc(-c3ccc(F)c(C(F)(F)F)c3)c2c1=O)N1CC2(COC2)C1 [Example 69, 3-(4-fluoro-3-(trifluoromethyl)phen-yl)-5-(2-oxo-2-(2-oxa-6-azaspiro[3.3]heptan-6-yl)ethyl)thieno[3,2-c]pyridin-4(5H)-one]
140% | CC1(F)CN(C(=O)Cn2ccn3ccc(-c4ccc(Cl)c(Cl)c4)c3c2=O)C1 [Example 396, 8-(3,4-dichlorophenyl)-2-(2-(3-fluoro-3-methylazetidin-1-yl)-2-oxoethyl)pyrrolo[1,2-a]pyrazin-1(2H)-one]
81% | O=C(Cn1ccc2scc(-c3ccc(F)c(C(F)(F)F)c3)c2c1=O)N1CC[C@@H](F)C1 [Example 27, (R)-3-(4-fluoro-3-(trifluoromethyl)phen-yl)-5-(2-(3-fluoropyrrolidin-1-yl)-2-oxoethyl)thieno[3,2-c]pyridin-4(5H)-one]
84% | O=C(Cn1ccc2[nH]cc(-c3ccc(Cl)c(Cl)c3)c2c1=O)N1CCC(F)C1 (stereo not drawn) [Example 214, 3-(3,4-dichlorophenyl)-5-(2-(3-fluoropyrrolidin-1-yl)-2-oxoethyl)-1H-pyrrolo[3,2-c]pyridin-4(5H)-one]
93% | O=C(Cn1ccc2c(c(-c3ccc(Cl)c(Cl)c3)cn2CCF)c1=O)N1CCC(F)C1 (stereo not drawn) [Example 273, 3-(3,4-dichlorophenyl)-1-(2-fluoroethyl)-5-[2-(3-fluoropyrrolidin-1-yl)-2-oxoethyl]-1H,4H,5H-pyrrolo[3,2-c]pyridin-4-one]

From patent US12162890B2 (Novartis AG, priority 2015, dated 2024)
